According to article PMC10038264, “A new family of glutamate-gated chloride channels in parasitic sea louse Caligus rogercresseyi: A subunit refractory to activation by ivermectin is dominant in heteromeric assemblies” (PLOS Pathogens, 2023):
Where two headings read alike, the source gives them in different places.

Key:
CrGluCl-B = experiment: Two-electrode voltage-clamp of Xenopus oocytes expressing CrGluCl-B; format: cell-based, Caligus rogercresseyi; conditions: CrGluCl-B
Description: (§1) Adult female Xenopus laevis frogs were anaesthetized by immersion in a1g/L solution tricaine (Ethyl 3-aminobenzoate methanesulfonate, Sigma) buffered to pH 7 with NaHCO3. Surgery was performed 30–40 min later, once the frog was completely anaesthetized judging by loss of reflexes. Ovarian lobes were removed through 1 cm abdominal incision and then kept at 16°C in Barth’s modified solution containing (in mM): 88 NaCl, 1 KCl, 0.4 CaCl2, 0.3 Ca (NO3)2, 0.8 MgSO4, 2.4 NaHCO3, 5 Hepes, 2.5 sodium pyruvate, 100 μg/ml gentamicin sulfate, 100 U/ml penicillin, 100 μg/ml streptomycin, 250 μg/ml amphotericin B, 0.22μm filtered and adjusted to pH 7.5 with Tris-Base. Osmolarity was brought to 220 mOsm with saccharose. The oocytes were manually defolliculated on the same day of extraction and the following day 20 ng cRNA in nuclease-free water was injected into stage V-VI oocytes using a FemtoJet microinjector (Eppendorf). Finally, the injected oocytes were stored in 96 well plates containing Barth’s modified solution and kept at 16°C until experiment day.
(§2) Current measurements at controlled membrane potentials (voltage-clamp experiments) were performed using two intracellular microelectrodes in defolliculated Xenopus oocytes previously microinjected with 20 ng of cRNA. Voltage-clamp recording was performed at room temperature using a TURBO TEC-10CX amplifier (npi electronic GmbH, Tamm, Germany) and PClamp 10.6 software (Axon Instruments, USA), 1 to 4 days after oocyte injection. The oocytes were recorded in a chamber (Model RC-1Z, Warner Instrumenst, USA) under continuous superfusion. […] Reference was an Ag-AgCl electrode connected to the bath via a 3 M KCl in 3% agar bridge. Currents were recorded continuously during the experiments without interruptions for solution changes. Oocytes were held at -30 mV and a voltage protocol consisting of a voltage drop to -100 mV for 25ms followed by a 360 ms ramp from -100 mV to 60mV applied with a period of 565 ms was continuously given. The signal filtered at 1 kHz was acquired with a Digidata 1440A Analog-to-Digital Converter and analyzed with Axon pClamp 10.6 software. The solution that bathed the oocytes during the electrophysiological recordings had the following composition (mM): 115 NaCl, 2 KCl, 1.8 CaCl2, 1 MgCl2, 10 HEPES pH 7.5 obtained with NaOH. For the low chloride solution, all the NaCl was replaced with the gluconate salt of Na. This decreases chloride concentration from 122.6 to 7.6 mM while increasing that of gluconate from 0 to 115 mM. The stock solutions of the drugs in dimethyl sulfoxide (DMSO) were: 10 mM emamectin, 10 mM ivermectin, 100 mM picrotoxin. These were diluted in bath solution to obtain final concentrations.
(§3) The currents were normalized according to the extrapolated maximum current delivered by the Hill adjustment. In this way, the concentration that generates 50% of the maximum effect (EC50) and the Hill coefficient (nH) for each situation were obtained.

CrGluCl-A [1] = molecular target: T1, CrGluCl-A (Caligus rogercresseyi, UniProt A0A1W6LZ70); conditions: cited from earlier work
T1 sequence (A0A1W6LZ70 entry or part of it): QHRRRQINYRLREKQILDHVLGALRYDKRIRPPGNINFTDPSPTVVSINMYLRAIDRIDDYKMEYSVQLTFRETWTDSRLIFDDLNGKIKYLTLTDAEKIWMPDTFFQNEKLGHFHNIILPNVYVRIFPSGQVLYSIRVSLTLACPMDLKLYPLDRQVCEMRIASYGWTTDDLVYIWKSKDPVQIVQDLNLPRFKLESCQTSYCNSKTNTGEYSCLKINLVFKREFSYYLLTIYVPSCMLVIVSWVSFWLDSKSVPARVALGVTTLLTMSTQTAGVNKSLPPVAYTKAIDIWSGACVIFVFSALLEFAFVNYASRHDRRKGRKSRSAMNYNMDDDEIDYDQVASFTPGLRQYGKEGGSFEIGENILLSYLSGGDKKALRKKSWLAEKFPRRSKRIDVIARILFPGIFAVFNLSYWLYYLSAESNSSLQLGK

CrGluCl-A [2] = molecular target: T1, CrGluCl-A; experiment: Two-electrode voltage-clamp of Xenopus oocytes expressing CrGluCl-A; format: cell-based; conditions: 100 μM PTX, CrGluCl-A
Description: as §1
Current measurements at controlled membrane potentials (voltage-clamp experiments) were performed using two intracellular microelectrodes in defolliculated Xenopus oocytes previously microinjected with 20 ng of cRNA. Voltage-clamp recording was performed at room temperature using a TURBO TEC-10CX amplifier (npi electronic GmbH, Tamm, Germany) and PClamp 10.6 software (Axon Instruments, USA), 1 to 4 days after oocyte injection. The oocytes were recorded in a chamber (Model RC-1Z, Warner Instrumenst, USA) under continuous superfusion. […] Reference was an Ag-AgCl electrode connected to the bath via a 3 M KCl in 3% agar bridge. Currents were recorded continuously during the experiments without interruptions for solution changes. […] The signal filtered at 1 kHz was acquired with a Digidata 1440A Analog-to-Digital Converter and analyzed with Axon pClamp 10.6 software. […]

CrGluCl-D = format: cell-based, Caligus rogercresseyi; conditions: CrGluCl-D, read-out: IC50 PTX inhibition of spontaneous current
Description: as §1, §2, §3

CrGluCl-C = format: cell-based, Caligus rogercresseyi
Description: as §1, §2, §3

Substance | antagonism of glutamate response (CrGluCl-B; S3 Fig) | EC50 (CrGluCl-A [1]; read-out: EC50 Ivermectin / avermectin irreversible activation) | inhibition by PTX (CrGluCl-A [2]) | inhibition by PTX of glutamate-elicited current (CrGluCl-B; 100 μM PTX, 1 mM glutamate) | IC50 (CrGluCl-D; after 1 μM ivermectin (~2 min)) | IC50 (CrGluCl-D; before ivermectin treatment) | inhibition by PTX (CrGluCl-C; 100 μM PTX, CrGluCl-C) | nH (PTX inhibition) (CrGluCl-C; CrGluCl-C current elicited by 1 μM ivermectin) | IC50 (CrGluCl-C; CrGluCl-C current elicited by 1 μM ivermectin, read-out: IC50 PTX inhibition of ivermectin-induced current) | IC50 (CrGluCl-A [1])
emamectin | antagonistic effect | ~0.2 µM | – | – | – | – | – | – | – | –
picrotoxin [PTX] | – | – | 78 ± 2% | 76 ± 9% | 221 ± 100 µM | 16 ± 8.8 µM | 23 ± 10% | -1.2±0.22 | 275 ± 96 µM | 3.2 µM
